Results from patent US5110976A, “Insecticidal composition comprising more than one active ingredient” (priority 1985, dated 1992).
Converted amounts (≈) assume the structure as drawn.

Tests used:
[1] = tested on: Musca domestica; test: Filter paper disc contact test (Table 11); assay type: in vivo, house fly (Musca domestica)
Summary of the method: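 Stereoisomers in 1:2 oil/acetone were applied to 9 cm filter paper discs, the acetone evaporated, and discs placed in Petri dishes with 15 flies each, three replicates per dose. Mortality was scored at 24 h and corrected by Abbott's formula.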

[2] = tested on: Tribolium confusum; test: Contact test on Tribolium confusum (Table 12); assay type: in vivo; settings: Tribolium confusum, 24 h
Summary of the method: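 Compound in 1:2 oil/acetone impregnated onto 9 cm filter paper discs; after acetone evaporation, 15 insects per Petri dish exposed by contact, three replicates per dose. Mortality read at 24 hours and corrected by Abbott's formula.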

[3] = tested on: Tribolium confusum; test: Contact test, mixtures of Ia and Ib of various ratio (Table 13); assay type: in vivo, flour beetle (Tribolium confusum)
Description: (§1) The active ingredient is dissolved in a 1:2 mixture of oil and acetone; filter paper discs (Whatman No. 1, diameter 9 cm) are impregnated with the solutions of the corresponding stereoisomers and enantiomer-pairs, respectively. The acetone is allowed to evaporate, whereupon the insects are exposed to filter papers discs placed in Petri-dishes. Three parallels are used on each dose and 15 insects are placed into each Petri-dish. The percental mortality is determined after 24 hours. The corrected percent mortality is calculated by means of the Abbot Formula.
In Table 13 the insecticidal effect of mixtures of enantiomer-pairs Ia and Ib of various ratio is shown on flour beetle (Tribolium confusum). The test method is that disclosed in Example 43.

[4] = tested on: Colorado potato beetle; test: Topical test on Colorado potato beetle (Table 14); assay type: in vivo, Colorado potato beetle (Leptinotersa decemlineata), imago
Description: In Table 14 the activity on Colorado potato beetle is shown.
The test materials are dissolved in 2-ethoxyethanol (Cellosolve). One 0.3 μl drop of the solution is applied to the abdominal sterna of the imago. The treatment is carried out by using 2 parallels and 10 insects for each dose. […]

[5] = tested on: Acanthoscelides obtectus; test: Comparative contact test (Table 15); assay type: in vivo, bean weevil (Acanthoscelides obtectus), imago; settings: Acanthoscelides obtectus, 24 h
Description: as §1
(§2) The comparative test of Ia, Ib and a 40:60 mixture of Ia:Ib is carried out on bean weevil (Acanthoscelides obtectus), flour-beetle, (Tribolium confusum), house fly (Musca domestica) and sheep maggot fly (Lucillia sericata). The test method described is Example 41.

[6] = tested on: tribolium confusum; test: Comparative contact test (Table 15); assay type: in vivo, flour-beetle (Tribolium confusum), imago; settings: 24 h
Description: as §1, §2

[7] = tested on: Musca domestica; test: Comparative contact test (Table 15); assay type: in vivo, house fly (Musca domestica), imago; settings: 24 h
Description: as §1, §2

[8] = tested on: Lucillia sericata; test: Comparative contact test (Table 15); assay type: in vivo, sheep maggot fly (Lucillia sericata), imago; design: key: % mortality after 24 h, Abbott-corrected; settings: 1440 min
Description: as §1, §2

[9] = tested on: T. confusum; test: Activity as function of time, toxic symptoms (Table 16); assay type: in vivo, flour beetle (T. confusum), imagos
Summary of the method: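 T. confusum imagos exposed in Petri dishes to filter-paper discs impregnated with isomer solutions in 1:2 oil/acetone, acetone evaporated; 3 replicates of 15 insects per dose. Insects lying on their backs counted at successive time points, expressed as percent.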

[10] = tested on: Hyphantria cunea; test: Topical test on fall webworm (Table 18); assay type: in vivo, fall wetworm (Hyphantria cunea), L7-L8 larvae; settings: for 24 hours' mortality: 1440 min
Description: The active ingredients are dissolved in 2-ethoxy-ethanol and the solutions are applied in the form of 0.2 μl droplets onto the back of fall wetworm (Hyphantria cunea) of L7 -L8 larvae stage. The treated worms are placed on strawberry leaves in Petri-dishes. The test is carried out by using […], 2 parallels and 10 insects for each dose. The killed worms are counted after 24 hours and the percental mortality rate is calculated.

[11] = tested on: Tetranychus urticae; test: Potter Tower spray on mite-infested leaves (Table 19); assay type: in vivo, mites (Tetranychus urticae); settings: Tetranychus urticae, 24 h, mortality after 24 hours; read-out: approx. LD50
Description: Leaves already infested with mites (Tetranychus urticae) were sprayed under Potter Tower. Mortality after 24 hours on the treated leaves was compared with the control.

[12] = tested on: Aphidinus matricariae; test: Residual contact test on adults (Table 25); assay type: in vivo, adult females
Description: Residual contact test on adults of Aphidinus matricariae. Adults of A. matricariae are exposed to residues of the active ingredients freshly applied on glass plates forming cages, then the survivors are counted.
Treatment: test product and control treated with water.
Replicates: at least 3. Plot size (net): 1 cage.
Parasites of known age (24 hours) are used. […]
10 females of A. matricariae are introduced into each cage and supplied with honey as food. The number of females surviving exposure is determined after 1, 5 and 24 hours, in independent runs. Total number of survivors is calculate for each cage.

## CC1(C)C(C=C(Cl)Cl)C1C(=O)OC(C#N)c1cccc(Oc2ccccc2)c1 (centres unmarked) [Ia:Ib = 4:6]
[1]; Musca domestica, 24 h, 0.04 mg/disc
  mortality at 40 µg/disc: 41%
[1]; Musca domestica, 24 h, 0.11 mg/disc
  mortality at 110 µg/disc: 81%
[1]; Musca domestica, 24 h, 0.33 mg/disc
  mortality at 330 µg/disc: 100%
[1]; Musca domestica, 24 h, 1.00 mg/disc
  mortality at 1000 µg/disc: 100%
[1]; Musca domestica, 24 h, 3.00 mg/disc
  mortality at 3000 µg/disc: 100%
[1]; mixture versus Ia
  comparative activity: corresponds to that of the pure isomer Ia
[2]; 0.11 mg/disc
  mortality at 110 µg/disc: 61%
[2]; 0.33 mg/disc
  mortality at 330 µg/disc: 89%
[2]; 1.00 mg/disc
  mortality at 1000 µg/disc: 100%
[2]; 3.00 mg/disc
  mortality at 3000 µg/disc: 100%
[3]; 0.02 mg/disc, 1440 min
  24 hours' mortality %: 14%
[3]; 0.06 mg/disc, 1440 min
  24 hours' mortality %: 53%
[3]; 0.25 mg/disc
  24 hours' mortality %: 100%
[3]; 1.00 mg/disc
  24 hours' mortality %: 100%
[4]; 0.05 μg/beetle
  24 hours' mortality %: 45%
[4]; 0.10 μg/beetle
  24 hours' mortality %: 60%
[4]; 0.20 μg/beetle
  24 hours' mortality %: 70%
[4]; Leptinotarsa decemlineata, topical, read-out: 24 hours' mortality %, 0.40 μg/beetle
  mortality at 0.4 µg/beetle: 80%
[5]; 0.02 mg/disc
  mortality at 20 µg/disc: 30%
[5]; 0.07 mg/disc
  mortality at 70 µg/disc: 55%
[5]; 0.22 mg/disc
  mortality at 220 µg/disc: 90%
[5]; 0.67 mg/disc
  mortality at 670 µg/disc: 100%
[5]; 2.0 mg/disc
  mortality at 2000 µg/disc: 100%
[5]; 6.0 mg/disc
  mortality at 6000 µg/disc: 100%
[6]; 0.02 mg/disc
  mortality at 20 µg/disc: 16%
[6]; 0.07 mg/disc
  mortality at 70 µg/disc: 80%
[6]; 0.22 mg/disc
  mortality at 220 µg/disc: 100%
[6]; 0.67 mg/disc
  mortality at 670 µg/disc: 100%
[6]; 2.0 mg/disc
  mortality at 2000 µg/disc: 100%
[6]; 6.0 mg/disc
  mortality at 6000 µg/disc: 100%
[7]; 0.02 mg/disc
  mortality at 20 µg/disc: 25%
[7]; 0.07 mg/disc
  mortality at 70 µg/disc: 45%
[7]; 0.22 mg/disc
  mortality at 220 µg/disc: 85%
[7]; 0.67 mg/disc
  mortality at 670 µg/disc: 100%
[7]; 2.0 mg/disc
  mortality at 2000 µg/disc: 100%
[7]; 6.0 mg/disc
  mortality at 6000 µg/disc: 100%
[8]; 0.02 mg/disc
  mortality: 18
[8]; 0.07 mg/disc
  mortality: 50
[8]; 0.22 mg/disc
  mortality: 60
[8]; 0.67 mg/disc
  mortality: 75
[8]; 2.0 mg/disc
  mortality: 100
[8]; 6.0 mg/disc
  mortality: 100
[9]; 30 minutes
  % of insects showing toxic symptoms: 0%
[9]; 30 minutes, 0.33 mg/disc
  % of insects showing toxic symptoms: 0%
[9]; 30 minutes, 1.00 mg/disc
  % of insects showing toxic symptoms: 50%
[9]; 30 minutes, 3.00 mg/disc
  % of insects showing toxic symptoms: 55%
[9]; 60 minutes
  % of insects showing toxic symptoms: 15%
[9]; 60 minutes, 0.33 mg/disc
  % of insects showing toxic symptoms: 85%
[9]; 60 minutes, 1.00 mg/disc
  % of insects showing toxic symptoms: 85%
[9]; 60 minutes, 3.00 mg/disc
  % of insects showing toxic symptoms: 100%
[9]; 120 minutes
  % of insects showing toxic symptoms: 30%
[9]; 120 minutes, 0.33 mg/disc
  % of insects showing toxic symptoms: 100%
[9]; 120 minutes, 1.00 mg/disc
  % of insects showing toxic symptoms: 100%
[9]; 120 minutes, 3.00 mg/disc
  % of insects showing toxic symptoms: 100%
[9]; 180 minutes
  % of insects showing toxic symptoms: 55%
[9]; 180 minutes, 0.33 mg/disc
  % of insects showing toxic symptoms: 100%
[9]; 180 minutes, 1.00 mg/disc
  % of insects showing toxic symptoms: 100%
[9]; 180 minutes, 3.00 mg/disc
  % of insects showing toxic symptoms: 100%
[10]; 0.023 (μg/disc)
  24 hours' mortality: 40%
[10]; 0.047 (μg/disc)
  24 hours' mortality: 50%
[10]; 0.094 (μg/disc)
  24 hours' mortality: 55%
[10]; Hyphantria cunea, topical, 24 h, 0.188 (μg/disc)
  mortality at 0.188 µg/disc: 65%
[10]; Hyphantria cunea, topical, 24 h, 0.375 (μg/disc)
  mortality at 0.375 µg/disc: 75%
[11]
  LC50: ~0.06 µg/mL (≈ 0.144 µM)
[12]; 1 ppm, 1h
  Mortality %: 50%
[12]; 1 ppm, 5h
  Mortality %: 90%
[12]; 1 ppm, 24h
  Mortality %: 63%
[12]; 5 ppm, 1h
  Mortality %: 100%
